Key:
Mus musculus = species on record: Mus musculus; assay: In vitro immunosuppressive activity in murine splenic T cells; type: functional, cell-based; settings: T-cell
[1] = target: Peptidyl-prolyl cis-trans isomerase FKBP1A (Homo sapiens, UniProt P62942); assay: Effective concentration determined was towards FK506 binding protein 12 by competitive binding assay using [3H]-dihydro FK-506 as radioligand
Chain of Peptidyl-prolyl cis-trans isomerase FKBP1A (P62942 whole entry): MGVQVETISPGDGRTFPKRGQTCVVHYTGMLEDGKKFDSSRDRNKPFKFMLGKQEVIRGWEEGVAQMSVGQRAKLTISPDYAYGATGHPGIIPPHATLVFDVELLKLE

Row | Compound | IC50 (Mus musculus) [nM] | EC50 [1] [nM]
1 | CC[C@@H]1/C=C(\C)C[C@H](C)C[C@H](OC)[C@H]2O[C@@](O)(C(=O)C(=O)N3CCCC[C@H]3C(=O)O[C@H](/C(C)=C/[C@@H]3CC[C@@H](OCc4ccccc4)[C@H](OC)C3)[C@H](C)[C@@H](O)CC1=O)[C@H](C)C[C@@H]2OC | 3 | 5.3
2 | CC[C@@H]1/C=C(\C)C[C@H](C)C[C@H](OC)[C@H]2O[C@@](O)(C(=O)C(=O)N3CCCC[C@H]3C(=O)O[C@H](/C(C)=C/[C@@H]3CC[C@@H](OCC(=O)c4ccccc4)[C@H](OC)C3)[C@H](C)[C@@H](O)CC1=O)[C@H](C)C[C@@H]2OC | 0.27 | –
3 | CC[C@@H]1/C=C(\C)C[C@H](C)C[C@H](OC)[C@H]2O[C@@](O)(C(=O)C(=O)N3CCCC[C@H]3C(=O)O[C@H](/C(C)=C/[C@@H]3CC[C@@H](OCCc4ccccc4)[C@H](OC)C3)[C@H](C)[C@@H](O)CC1=O)[C@H](C)C[C@@H]2OC | 0.61 | 9.2
4 | CC[C@@H]1/C=C(\C)C[C@H](C)C[C@H](OC)[C@H]2O[C@@](O)(C(=O)C(=O)N3CCCC[C@H]3C(=O)O[C@H](/C(C)=C/[C@@H]3CC[C@@H](OC(=O)Cc4ccccc4)[C@H](OC)C3)[C@H](C)[C@@H](O)CC1=O)[C@H](C)C[C@@H]2OC | 3.5 | –
5 | CC[C@@H]1/C=C(\C)C[C@H](C)C[C@H](OC)[C@H]2O[C@@](O)(C(=O)C(=O)N3CCCC[C@H]3C(=O)O[C@H](/C(C)=C/[C@@H]3CC[C@@H](O)[C@H](OC)C3)[C@H](C)[C@@H](O)CC1=O)[C@H](C)C[C@@H]2OC [ASCOMYCIN] | 0.69 | –
6 | C=C(CO[C@@H]1CC[C@@H](/C=C(\C)[C@H]2OC(=O)[C@@H]3CCCCN3C(=O)C(=O)[C@]3(O)O[C@H]([C@@H](OC)C[C@@H](C)C/C(C)=C/[C@@H](CC)C(=O)C[C@H](O)[C@H]2C)[C@@H](OC)C[C@H]3C)C[C@H]1OC)c1ccccc1 | 1 | –
7 | CC[C@@H]1/C=C(\C)C[C@H](C)C[C@H](OC)[C@H]2O[C@@](O)(C(=O)C(=O)N3CCCC[C@H]3C(=O)O[C@H](/C(C)=C/[C@@H]3CC[C@@H](OCCO)[C@H](OC)C3)[C@H](C)[C@@H](O)CC1=O)[C@H](C)C[C@@H]2OC | 4.3 | –
8 | CC[C@@H]1/C=C(\C)C[C@H](C)C[C@H](OC)[C@H]2O[C@@](O)(C(=O)C(=O)N3CCCC[C@H]3C(=O)O[C@H](/C(C)=C/[C@@H]3CC[C@@H](Oc4ccccc4)[C@H](OC)C3)[C@H](C)[C@@H](O)CC1=O)[C@H](C)C[C@@H]2OC | 5.4 | 12
9 | CC[C@@H]1/C=C(\C)C[C@H](C)C[C@H](OC)[C@H]2O[C@@](O)(C(=O)C(=O)N3CCCC[C@H]3C(=O)O[C@H](/C(C)=C/[C@@H]3CC[C@@H](OCC(O)c4ccccc4)[C@H](OC)C3)[C@H](C)[C@@H](O)CC1=O)[C@H](C)C[C@@H]2OC (some centres undefined) | 0.18 | –
10 | CC[C@@H]1/C=C(\C)C[C@H](C)C[C@H](OC)[C@H]2O[C@@](O)(C(=O)C(=O)N3CCCC[C@H]3C(=O)O[C@H](/C(C)=C/[C@@H]3CC[C@@H](OCCCc4ccccc4)[C@H](OC)C3)[C@H](C)[C@@H](O)CC1=O)[C@H](C)C[C@@H]2OC | 3.5 | 32

From ChEMBL document CHEMBL1132664, “C32-O-phenalkyl ether derivatives of the immunosuppressant ascomycin: a tether length study” (Bioorg Med Chem Lett, 1999)
